Assay results from paper PMC7450057, “Enhancing intracellular accumulation and target engagement of PROTACs with reversible covalent chemistry” (Nature Communications, 2020).
Where “and” joins values, the source holds several entries; their conditions need not be identical. Equal values may be shown once.

How the values were obtained:
MOLM-14 cells = experiment: AlamarBlue cell viability assay, MOLM-14; conditions: for Cell viability, MOML-14: Supplementary Figure 7, replicates
Protocol: The IC50 was calculated using GraphPad Prism software with a four-parameter dose-response curve fit.

BTK [1] = target: T1, BTK (Homo sapiens, UniProt Q06187); experiment: BTK degradation in MOLM-14 cells (western blot); type: cell-based; design: endogenous in cells; host or cells: MOLM-14; conditions: MOLM-14 cells; for Degradation at 200 nM (percentage of BTK degradation): 24 h incubation
NanoLuc-CRBN fusion = target: T2, NanoLuc-CRBN fusion (Homo sapiens, UniProt Q96SW2); experiment: NanoBRET CRBN in-cell target engagement assay; type: cell-based; conditions: for NanoBRET(%): Figure 3h, replicates; for IC50: HEK-293 cells, CRBN tracer 0.5 µM, triplicates, read-out: CRBN target engagement IC50,TE
T2 construct: host or cells: HEK 293T/17
Protocol: The target engagement assay for BTK or CRBN was from Promega (BTK kit, Cat. No. N2500; CRBN kit, Cat. No. CS1810C136) and was performed according to the manufacture’s instruction with some modifications. […] After 2 h incubation, the 3X Nano-Glo® Substrate with NanoLuc® extracellular inhibitor were added to cells and developed for 3 min at room temperature. BRET signals were collected using a BioTek SYNERGY H1 microplate reader equipped with a 450/80-nm BP filter for donor emission and a 610-nm LP filter for acceptor emission. BRET Ratio was calculated with the equation: [(Acceptor sample/Donor sample)–(Acceptor no tracer control/Donor no tracer control)] × 1000. The IC50 of the compound against its BTK or CRBN tracer was calculated using GraphPad Prism software.

BTK [2] = target: T1, BTK; experiment: In vitro BTK kinase assay (PhosphoSens); type: biochemical; design: purchased SignalChem B10-10H-10
Protocol: BTK kinase activity inhibition IC50 was measured by PhosphoSens® Kinase Assay Kit (Assay Quant Technologies Inc., Cat.# CSKS-AQT0101K). […] Active recombinant BTK was purchased from SignalChem (Cat.# B10-10H-10). All the drugs (3 warhead control and 4 PROTACs) were dissolved in DMSO (10 mM). […] To calculate the IC50, subtract the background fluorescence determined with the “no kinase” control for each time point from the total signal to obtain corrected Relative Fluorescence Units (RFU) values. Plot the corrected RFU vs. Time for each inhibitor concentration and determine the initial reaction rates (slope of the linear portion) for each progress curve for each inhibitor concentration. Then plot velocity (RFU corrected/minute) vs [inhibitor] and determine the IC50 using a 4-parameter logistic fit.

T1 sequence (Q06187 whole entry, the tested form may be a part): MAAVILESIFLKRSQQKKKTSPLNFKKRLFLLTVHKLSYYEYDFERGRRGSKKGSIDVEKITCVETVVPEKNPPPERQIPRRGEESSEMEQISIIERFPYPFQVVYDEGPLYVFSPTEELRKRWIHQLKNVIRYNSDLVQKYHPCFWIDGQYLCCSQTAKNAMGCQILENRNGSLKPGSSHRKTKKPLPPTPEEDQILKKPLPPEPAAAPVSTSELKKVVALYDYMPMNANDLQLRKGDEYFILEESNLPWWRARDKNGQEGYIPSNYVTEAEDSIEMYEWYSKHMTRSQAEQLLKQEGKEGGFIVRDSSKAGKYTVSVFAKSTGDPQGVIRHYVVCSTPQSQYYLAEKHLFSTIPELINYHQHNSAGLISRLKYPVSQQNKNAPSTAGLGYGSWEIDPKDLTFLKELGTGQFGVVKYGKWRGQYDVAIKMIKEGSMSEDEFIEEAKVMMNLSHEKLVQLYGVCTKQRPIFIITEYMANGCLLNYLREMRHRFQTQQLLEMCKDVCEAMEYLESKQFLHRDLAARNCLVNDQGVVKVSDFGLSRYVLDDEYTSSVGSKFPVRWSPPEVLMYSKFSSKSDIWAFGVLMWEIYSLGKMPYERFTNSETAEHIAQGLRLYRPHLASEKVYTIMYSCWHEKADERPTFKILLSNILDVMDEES
T2 sequence (Q96SW2 whole entry, the tested form may be a part): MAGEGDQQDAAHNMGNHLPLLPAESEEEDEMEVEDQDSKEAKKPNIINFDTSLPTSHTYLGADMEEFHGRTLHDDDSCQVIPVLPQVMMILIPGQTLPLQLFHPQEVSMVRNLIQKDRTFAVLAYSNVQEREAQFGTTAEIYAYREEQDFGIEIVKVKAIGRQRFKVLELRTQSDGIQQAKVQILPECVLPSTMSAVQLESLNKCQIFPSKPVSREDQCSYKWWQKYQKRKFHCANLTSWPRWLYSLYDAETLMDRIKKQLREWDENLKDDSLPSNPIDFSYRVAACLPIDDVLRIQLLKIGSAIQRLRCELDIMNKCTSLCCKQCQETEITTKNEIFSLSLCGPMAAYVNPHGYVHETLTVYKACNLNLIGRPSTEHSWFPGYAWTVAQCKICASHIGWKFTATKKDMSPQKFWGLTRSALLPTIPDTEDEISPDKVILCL
T2 sequence (Q16531 whole entry partner, the tested form may be a part): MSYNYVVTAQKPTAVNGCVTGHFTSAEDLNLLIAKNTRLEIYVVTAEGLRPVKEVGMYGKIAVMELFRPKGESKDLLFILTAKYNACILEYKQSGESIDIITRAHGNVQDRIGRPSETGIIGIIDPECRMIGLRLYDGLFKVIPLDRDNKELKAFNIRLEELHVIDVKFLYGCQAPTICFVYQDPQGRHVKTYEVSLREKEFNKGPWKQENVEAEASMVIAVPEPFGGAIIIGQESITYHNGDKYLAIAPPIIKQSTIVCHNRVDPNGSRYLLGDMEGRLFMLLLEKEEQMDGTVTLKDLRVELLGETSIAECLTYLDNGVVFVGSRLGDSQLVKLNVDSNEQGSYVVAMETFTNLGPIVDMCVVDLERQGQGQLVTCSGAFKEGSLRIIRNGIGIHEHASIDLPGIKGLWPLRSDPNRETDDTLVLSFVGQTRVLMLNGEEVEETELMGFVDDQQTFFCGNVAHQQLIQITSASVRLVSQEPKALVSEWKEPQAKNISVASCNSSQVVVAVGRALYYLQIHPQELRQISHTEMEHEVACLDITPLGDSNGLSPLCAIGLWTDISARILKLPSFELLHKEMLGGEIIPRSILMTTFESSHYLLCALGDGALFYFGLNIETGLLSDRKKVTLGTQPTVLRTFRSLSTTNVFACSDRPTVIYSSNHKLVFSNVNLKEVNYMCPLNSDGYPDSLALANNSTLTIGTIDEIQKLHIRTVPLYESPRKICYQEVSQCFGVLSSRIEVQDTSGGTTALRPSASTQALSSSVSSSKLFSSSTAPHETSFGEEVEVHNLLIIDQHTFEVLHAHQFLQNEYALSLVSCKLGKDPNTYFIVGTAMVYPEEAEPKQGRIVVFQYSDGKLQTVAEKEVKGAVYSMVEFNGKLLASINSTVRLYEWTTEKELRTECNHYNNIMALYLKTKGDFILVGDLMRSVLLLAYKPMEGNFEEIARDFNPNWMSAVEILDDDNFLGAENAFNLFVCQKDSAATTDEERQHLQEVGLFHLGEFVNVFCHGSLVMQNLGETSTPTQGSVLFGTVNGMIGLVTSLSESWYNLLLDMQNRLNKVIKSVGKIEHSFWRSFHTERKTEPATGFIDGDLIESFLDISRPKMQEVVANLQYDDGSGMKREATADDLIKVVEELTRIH

SMILES	Cell viability, MOML-14 (MOLM-14 cells; drug concentration 1.00E-05 M)	Cell viability, MOML-14 (MOLM-14 cells; drug concentration 1.60E-08 M)	Cell viability, MOML-14 (MOLM-14 cells; drug concentration 2.00E-06 M)	Cell viability, MOML-14 (MOLM-14 cells; drug concentration 3.20E-09 M)	Cell viability, MOML-14 (MOLM-14 cells; drug concentration 4.00E-07 M)	Cell viability, MOML-14 (MOLM-14 cells; drug concentration 6.40E-10 M)	Cell viability, MOML-14 (MOLM-14 cells; drug concentration 8.00E-08 M)	NanoBRET(%) (NanoLuc-CRBN fusion; drug concentration 1.00E-05 M)	NanoBRET(%) (NanoLuc-CRBN fusion; drug concentration 1.60E-08 M)	NanoBRET(%) (NanoLuc-CRBN fusion; drug concentration 2.00E-06 M)	NanoBRET(%) (NanoLuc-CRBN fusion; drug concentration 3.20E-09 M)	NanoBRET(%) (NanoLuc-CRBN fusion; drug concentration 4.00E-07 M)	NanoBRET(%) (NanoLuc-CRBN fusion; drug concentration 8.00E-08 M)	IC50 (NanoLuc-CRBN fusion)	Degradation at 200 nM (percentage of BTK degradation) (BTK [1])	further results
CN(CCOCCNC(=O)CNc1ccc2c(c1)C(=O)N(C1CCC(=O)NC1=O)C2=O)C(C)(C)C=C(C#N)C(=O)N1CCC[C@@H](n2nc(-c3ccc(Oc4ccccc4)cc3)c3c(N)ncnc32)C1 (stereo partly shown) [RC-10]	6.648 and 2.814 and 5.855 and 1.001 and 2.266	84.9481 and 73.56 and 76.0529 and 61.3598 and 63.4939	15.1841 and 8.971 and 14.3343 and 7.989 and 11.1237	88.1209 and 77.847 and 69.5373 and 71.6336 and 68.102	52.6534 and 38.4514 and 40.831 and 37.0727 and 36.6572	87.0746 and 98.5269 and 68.2342 and 85.7413 and 74.9197	70.5949 and 66.9688 and 60.3777 and 66.9311 and 50.1039	–	–	–	–	–	–	–	–	BTK degradation (in words) (BTK [1]; indicated doses, 24 h): cannot induce any BTK degradation
CCCNc1nc(Nc2ccc(C#N)cc2)ncc1C#CCCCNC(=O)[C@H](C)N(C)C(=O)CCCN(C)CCCNC(=O)CCNc1cccc2c1C(=O)N(C1CCC(=O)NC1=O)C2=O (stereo partly shown) [RNC-FLT3]	–	–	–	–	–	–	–	48.4243% and 48.1518% and 48.288%	120.01% and 113.24% and 126.78%	97.5318% and 86.9073% and 76.2828%	100.446% and 106.017%	98.4352% and 83.544% and 119.955%	117.071% and 115.752% and 114.432%	10.1 µM	–	–
CN(CCOCCNC(=O)CNc1cccc2c1C(=O)N(C1CCC(=O)NC1=O)C2=O)C(C)(C)C=C(C#N)C(=O)N1CCC[C@@H](n2nc(-c3ccc(Oc4ccccc4)cc3)c3c(N)ncnc32)C1 (stereo partly shown) [RC-3]	6.131 and 2.152 and 5.745 and 1.563 and 5.644	83.11 and 86.5611 and 70.0365 and 75.0101 and 88.6317	14.9208 and 11.551 and 11.6931 and 9.785 and 11.754	76.8575 and 93.7881 and 76.4921 and 85.0995 and 82.1762	53.106 and 44.4377 and 39.7686 and 41.149 and 48.4166	89.9919 and 78.9687 and 69.3463 and 82.7852 and 87.4746	71.5794 and 85.3634 and 65.8344 and 81.7296 and 79.4965	–	–	–	–	–	–	–	39%	–
CN(CCOCCOCCNC(=O)CNc1cccc2c1C(=O)N(C1CCC(=O)NC1=O)C2=O)C(C)(C)C=C(C#N)C(=O)N1CCC[C@@H](n2nc(-c3ccc(Oc4ccccc4)cc3)c3c(N)ncnc32)C1 (stereo partly shown) [RC-4]	7.995 and 4.587 and 6.948 and 0.6662 and 4.873	106.917 and 98.9797 and 102.749 and 88.7772 and 88.111	23.0509 and 25.7918 and 22.8415 and 19.1107 and 18.6919	98.1803 and 95.5954 and 92.3367 and 95.7248 and 84.8751	68.7719 and 62.8902 and 62.3953 and 62.1669 and 56.6088	92.8506 and 90.1858 and 94.6399 and 97.7806 and 77.071	89.7861 and 80.8588 and 84.9703 and 89.1389 and 65.2315	–	–	–	–	–	–	–	43%	–
CCCNc1nc(Nc2ccc(C#N)cc2)ncc1C#CCCCNC(=O)[C@H](C)N(C)C(=O)/C=C/CN(C)CCCNC(=O)CCNc1cccc2c1C(=O)N(C1CCC(=O)NC1=O)C2=O (stereo partly shown) [IRC-FLT3]	–	–	–	–	–	–	–	33.2279% and 26.4905% and 27.0048%	92.7988% and 108.391% and 111.382%	38.4699% and 38.0091% and 38.2395%	129.579% and 139.696% and 92.9737%	76.4349% and 76.1877% and 65.5306%	100.627% and 103.984% and 84.3671%	1.5 µM	–	–
CN(CCCNC(=O)COc1cccc2c1C(=O)N(C1CCC(=O)NC1=O)C2=O)C(C)(C)C=C(C#N)C(=O)N1CCC[C@@H](n2nc(-c3ccc(Oc4ccccc4)cc3)c3c(N)ncnc32)C1 (stereo partly shown) [RC-9]	-0.2322 and -0.06633 and -0.1327 and -0.8823 and -0.4179	85.6517 and 91.2637 and 79.403 and 91.5091 and 93.4859	9.041 and 7.098 and 11.4959 and 8.756 and 8.279	93.4859 and 94.8192 and 76.9154 and 100.657 and 77.1542	42.6932 and 44.9353 and 60.7695 and 44.0464 and 46.4279	113.612 and 82.5937 and 85.9834 and 109.612 and 104.358	79.6219 and 80.8756 and 76.0199 and 82.7728 and 91.7612	–	–	–	–	–	–	–	30%	–
CCCNc1nc(Nc2ccc(C#N)cc2)ncc1C#CCCCNC(=O)[C@H](C)N(C)C(=O)/C(C#N)=C/C(C)(C)N(C)CCCNC(=O)CCNc1cccc2c1C(=O)N(C1CCC(=O)NC1=O)C2=O (stereo partly shown) [RC-FLT3]	–	–	–	–	–	–	–	35.9991% and 14.2807% and 25.1399%	91.6727% and 89.8569% and 90.7648%	22.2416% and 18.9083% and 40.0723%	100.385% and 96.7751% and 101.754%	38.0473% and 34.6413% and 45.5817%	64.8551% and 66.5991% and 71.8605%	0.3 µM	–	–
CN(CCCCNC(=O)CNc1cccc2c1C(=O)N(C1CCC(=O)NC1=O)C2=O)C(C)(C)C=C(C#N)C(=O)N1CCC[C@@H](n2nc(-c3ccc(Oc4ccccc4)cc3)c3c(N)ncnc32)C1 (stereo partly shown) [RC-2]	1.939 (2×) and 0.9797 and 1.263 and 1.918	109.825 and 84.2418 and 85.8907 and 118.518 and 93.8319	9.2521 and 10.1835 and 11.1012 and 14.0541 and 10.0041	91.1619 and 67.352 and 96.5641 and 78.9913 and 73.6029	67.2416 and 67.0208 and 59.4522 and 60.425 and 58.2103	98.0682 and 96.9022 and 102.332 and 130.626 and 104.719	92.8384 and 69.3183 and 103.532 and 88.8644 and 89.4508	–	–	–	–	–	–	–	49%	–
CN(CCCNc1cccc2c1C(=O)N(C1CCC(=O)NC1=O)C2=O)C(C)(C)C=C(C#N)C(=O)N1CCCC(n2nc(-c3ccc(Oc4ccccc4)cc3)c3c(N)ncnc32)C1 (stereo not shown) [RC-8]	17.5563 and 16.7069 and 17.8914 and 20.4239 and 19.1771	123.954 and 125.216 and 128.45 and 118.008 and 115.826	51.2117 and 59.1288 and 59.5652 and 52.2481 and 61.4899	109.039 and 133.593 and 120.962 and 127.936 and 128.38	97.748 and 111.696 and 131.871 and 99.439 and 92.5349	132.113 and 115.156 and 99.1818 and 117.969 and 130.757	116.239 and 126.011 and 117.112 and 106.966 and 122.419	–	–	–	–	–	–	–	15%	–
CCC(=O)N1CCCC(n2nc(-c3ccc(Oc4ccccc4)cc3)c3c(N)ncnc32)C1 (stereo not shown) [RNC-Ctrl]	9.88 and 4.549 and 8.014 and 2.825 and 3.518	95.1882 and 83.3008 and 72.3018 and 73.7944 and 64.519	23.8281 and 18.1065 and 24.6633 and 17.9289 and 14.3751	99.7903 and 102.278 and 76.2998 and 63.1686 and 63.4529	54.0886 and 58.7263 and 56.6474 and 49.4687 and 44.0492	93.8377 and 115.463 and 71.822 and 77.5792 and 66.4558	94.9216 and 79.4804 and 66.9 and 56.8073 and 62.3334	–	–	–	–	–	–	–	–	IC50 (BTK [2]): 0.0136 µM; activity at 12.8 pM (BTK [2]; Supplementary Figure 5, drug concentration 12.8 pM, replicates, read-out: Inhibition(%)): 94.1%; activity at 64 pM (BTK [2]; Supplementary Figure 5, drug concentration 64 pM, replicates, read-out: Inhibition(%)): 94%; activity at 0.00032 µM (BTK [2]; Supplementary Figure 5, drug concentration 320 pM, replicates, read-out: Inhibition(%)): 92.7%; activity at 0.0016 µM (BTK [2]; Supplementary Figure 5, drug concentration 1600 pM, replicates, read-out: Inhibition(%)): 83.1%; activity at 0.008 µM (BTK [2]; Supplementary Figure 5, drug concentration 8000 pM, replicates, read-out: Inhibition(%)): 62.4%; activity at 0.04 µM (BTK [2]; Supplementary Figure 5, drug concentration 40000 pM, replicates, read-out: Inhibition(%)): 29.6%; activity at 0.2 µM (BTK [2]; Supplementary Figure 5, drug concentration 200000 pM, replicates, read-out: Inhibition(%)): 9.18%; activity at 1 µM (BTK [2]; Supplementary Figure 5, drug concentration 1000000 pM, replicates, read-out: Inhibition(%)): 3.99%; reduction of BTK inhibition activity compared with IRC-Ctrl (BTK [2]; ratio of IC50 values): 45 folds; activity at 2.56 pM (BTK [2]; read-out: Inhibition(%), Supplementary Figure 5, drug concentration 2.56 pM, replicates): 110%; IC50 (MOLM-14 cells; Homo sapiens, MOLM-14, 72 h, read-out: Cell viability IC50): 0.42 µM
